Measured values as given in US6391882B1, “4,5,6 and 7-indole and indoline derivatitives, their preparation and use” (H. Lundbeck A/S, priority 1998, dated 2002).
Like-named read-outs stand apart in the source and are kept apart here.

Legend:
[1] = molecular target: T1, cloned human 5-HT1A receptors (Homo sapiens, UniProt P08908); assay: Inhibition of 3H-5-CT binding to human 5-HT1A receptors; conditions: cloned human 5-HT1A receptors in transfected HeLa cells (HA7), 15 minutes at 37° C., pH 7.7
T1 construct: expressed in transfected cells; host or cells: HeLa cells (HA7)
T1 sequence (P08908 1-422): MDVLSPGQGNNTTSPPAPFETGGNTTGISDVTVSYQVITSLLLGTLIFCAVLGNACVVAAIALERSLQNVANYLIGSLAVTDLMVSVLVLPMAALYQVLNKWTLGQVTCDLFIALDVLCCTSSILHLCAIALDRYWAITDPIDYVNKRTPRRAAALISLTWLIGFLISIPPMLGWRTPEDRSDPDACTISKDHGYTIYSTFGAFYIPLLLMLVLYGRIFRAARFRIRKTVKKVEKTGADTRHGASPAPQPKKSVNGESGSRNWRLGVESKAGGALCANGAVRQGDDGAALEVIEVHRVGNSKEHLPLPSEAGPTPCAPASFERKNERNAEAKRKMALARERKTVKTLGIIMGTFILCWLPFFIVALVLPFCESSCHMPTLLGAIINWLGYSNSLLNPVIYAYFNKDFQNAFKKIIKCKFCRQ
Procedure: The affinity of the compounds of the invention to 5-HT1A receptors was determined by measuring the inhibition of binding of a radioactive ligand at 5-HT1A receptors as described in the following test:
Inhibition of ^3H-5-CT Binding to Human 5HT1A Receptors
By this method the inhibition by drugs of the binding of the 5-HT1A agonist ^3H-5-carboxamido tryptamine (^3H-5-CT) to cloned human 5-HT1A receptors stably expressed in transfected HeLa cells (HA7) (Fargin, A. et al, J. Biol. Chem., 1989, 264, 14848) is determined in vitro. The assay was performed as a modification of the method described by Harrington, M. A. et al, J. Pharmacol. Exp. Ther., 1994, 268, 1098. Human 5-HT1A receptors (40 μg of cell homogenate) were incubated for 15 minutes at 37° C. in 50 mM Tris buffer at pH 7.7 in the presence of ^3H-5-CT. Non-specific binding was determined by including 10 μM of metergoline. The reaction was terminated by rapid filtration through Unifilter GF/B filters on a Tomtec Cell Harvester. Filters were counted in a Packard Top Counter.

[2] = molecular target: T2, Serotonin reuptake (whole rat brain synaptosomes) (Rattus norvegicus, UniProt P31652); assay: Inhibition of 3H-5-HT uptake into rat brain synaptosomes; format: biochemical
T2 construct: from tissue; host or cells: whole rat brain synaptosomes
Procedure: Inhibition of ^3H-5-HT Uptake Into Rat Brain Synaptosomes
Using this method the ability of drugs to inhibit the accumulation of ^3H-5-HT into whole rat brain synaptosomes is determined in vitro.

[3] = 3H-5-HT accumulation into whole rat brain synaptosomes, in vitro, read-out: Inhibition of Serotonin reuptake IC50

T2 sequence (P31652 whole entry): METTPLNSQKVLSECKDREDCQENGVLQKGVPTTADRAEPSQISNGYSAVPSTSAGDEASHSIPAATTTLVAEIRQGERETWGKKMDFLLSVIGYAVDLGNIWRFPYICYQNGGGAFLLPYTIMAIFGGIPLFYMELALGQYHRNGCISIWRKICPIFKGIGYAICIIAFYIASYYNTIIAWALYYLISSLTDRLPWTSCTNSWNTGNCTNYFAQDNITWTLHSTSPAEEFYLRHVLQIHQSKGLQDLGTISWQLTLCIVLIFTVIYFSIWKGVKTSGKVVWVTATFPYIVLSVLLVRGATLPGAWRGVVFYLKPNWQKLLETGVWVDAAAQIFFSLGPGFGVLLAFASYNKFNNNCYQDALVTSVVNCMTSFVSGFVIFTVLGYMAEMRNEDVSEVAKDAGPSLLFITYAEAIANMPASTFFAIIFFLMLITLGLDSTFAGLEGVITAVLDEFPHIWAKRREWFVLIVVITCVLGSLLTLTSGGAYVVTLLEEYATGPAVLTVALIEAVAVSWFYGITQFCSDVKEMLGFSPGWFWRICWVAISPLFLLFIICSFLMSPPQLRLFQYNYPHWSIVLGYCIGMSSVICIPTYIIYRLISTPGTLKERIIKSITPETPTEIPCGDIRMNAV

For `OCc1cc(N2CCN(CCc3c[nH]c4ccc(Br)cc34)CC2)c2cc[nH]c2c1` [Compound 3c, 1-(2-(5-Bromo-1H-indol-3-yl)ethyl)-4-(6-hydroxymethyl-1H-indol-4-yl)piperazine], the IC50 [1] was 1000 nM, the IC50 [2] was 46 nM and the melting point was 163 to 165 °C.
With `c1ccc2c(CCCCN3CCN(c4cccc5[nH]ccc45)CC3)c[nH]c2c1` [Compound 1g, 1-(4-(1H-indol-3-yl)-1-butyl)-4-(1H-indol-4yl)piperazine] the IC50 [1] was 13 nM and the IC50 [2, 3] was 12 nM.
`Fc1ccc2[nH]cc(CCN3CC=C(c4cccc5[nH]ccc45)CC3)c2c1` [Compound 2h, 1-(2-(5-Fluoro-1H-indol-3-yl)ethyl)-4-(1H-indol-4-yl)-1,2,3,6-tetrahydropyridine] gave an IC50 [1] of 11 nM and an IC50 [2] of 2.5 nM.
`N#Cc1c[nH]c2cccc(N3CCN(CCc4c[nH]c5ccccc45)CC3)c12` [Compound 4m, 1-(3-Cyano-1H-indol-4-yl)-4-(2-(1H-indol-3-yl)ethyl)piperazine] gave an IC50 [1] of 3.2 nM and an IC50 [2] of 3 nM.
In the case of `Clc1ccc2c(CCN3CCN(c4cccc5[nH]ccc45)CC3)c[nH]c2c1` [Compound 2a, 1-(2-(6-Chloro-1H-indol-3-yl)ethyl)-4-(1H-indol-4-yl)piperazine], the IC50 [1] is reported as 3.4 nM and the IC50 [2] is reported as 21 nM.
For `Clc1cccc2[nH]cc(CCN3CCN(c4cccc5[nH]ccc45)CC3)c12` [Compound 2b, 1-(2-(4-Chloro-1H-indol-3-yl)ethyl)-4-(1H-indol-4-yl)piperazine], the IC50 [1] was 11 nM and the IC50 [2] was 6.9 nM.
Work on `Fc1ccc2c(CCCN3CCN(c4cccc5[nH]ccc45)CC3)noc2c1` [Compound 4a, 1-(3-(6-Fluoro-1,2-benzisoxazol-3-yl)-1-propyl)-4-(1H-indol-4-yl)piperazine] yielded an IC50 [1] of 9.8 nM and an IC50 [2, 3] of 360 nM.
Work on `Fc1ccc2occ(CCCN3CC=C(c4cccc5[nH]ccc45)CC3)c2c1` [Compound 4s, 1-(3-(5-Fluoro-3-benzofuranyl)-1-propyl)-4-(1H-indol-4-yl)-1,2,3,6-tetrahydropyridine] yielded an IC50 [1] of 16 nM and an IC50 [2] of 24 nM.
In the case of `OCc1cc(N2CCN(CCc3c[nH]c4ccc(F)cc34)CC2)c2cc[nH]c2c1` [Compound 3a, 1-(2-(5-Fluoro-1H-indol-3-yl)ethyl)-4-(6-hydroxymethyl-1H-indol-4-yl)piperazine], the IC50 [1] is reported as 910 nM and the IC50 [2] is reported as 17 nM.
With `Cc1ccc2occ(CCN3CCN(c4cccc5[nH]ccc45)CC3)c2c1` [Compound 4q, 1-(1H-Indol-4-yl)-4-(2-(5-methyl-3-benzofuranyl)ethyl)piperazine] the IC50 [1] was 21 nM and the IC50 [2] was 34 nM.
`Fc1ccc2occ(CCN3CCN(c4cccc5[nH]ccc45)CC3)c2c1` [Compound 1c, 1-(2-(5-Fluoro-3-benzofuranyl)ethyl)-4-(1H-indol-4-yl)piperazine] gave an IC50 [1] of 12 nM and an IC50 [2] of 57 nM.
`Cc1ccc2c(CCN3CCN(c4cccc5[nH]ccc45)CC3)coc2c1` [Compound 4u, 1-(1H-Indol-4-yl)-4-(2-(6-methyl-3-benzofuranyl)ethyl)piperazine] gave an IC50 [1] of 7 nM and an IC50 [2] of 93 nM.
With `Clc1ccc2c(CCN3CC=C(c4cccc5[nH]ccc45)CC3)c[nH]c2c1` [Compound 2g, 1-(2-(6-Chloro-1H-indol-3-yl)ethyl)-4-(1H-indol-4-yl)-1,2,3,6-tetrahydropyridine] the IC50 [1] was 2.8 nM and the IC50 [2] was 22 nM.
With `OCc1cc(N2CCN(CCc3c[nH]c4cc(Cl)ccc34)CC2)c2cc[nH]c2c1` [Compound 3b, 1-(2-(6-Chloro-1H-indol-3-yl)ethyl)-4-(6-hydroxymethyl-1H-indol-4-yl)piperazine] the IC50 [1] was 120 nM, the IC50 [2] was 33 nM and the melting point was 194 to 196 °C.
In the case of `c1ccc2c(CCN3CCN(c4cccc5[nH]ccc45)CC3)c[nH]c2c1` [Compound 1e, 1-(2-(1H-indol-3-yl)ethyl)-4-(1H-indol-4-yl)piperazine], the IC50 [1] is reported as 6.9 nM and the IC50 [2] is reported as 4.4 nM.
Molecule `N#Cc1c[nH]c2cccc(N3CCN(CCc4coc5ccccc45)CC3)c12` [Compound 4p, 1-(2-(3-Benzofuranyl)ethyl)-4-(3-cyano-1H-indol-4-yl)piperazine] has an IC50 [1] of 4.3 nM and an IC50 [2, 3] of 22 nM.
